# Laboratory results taken from patent US9115340B2, “Microfluidic continuous flow device” (AGENCY FOR SCIENCE TECHNOLOGY & RESEARCH, priority 2008, dated 2015).
# Assays:
# [1] = tested on: primary rat hepatocytes; test: Albumin secretion of primary rat hepatocytes cultured in the microfluidic channel (rat albumin ELISA); format: cell-based
# Description: 200 pg/ml of TGF-β1 was supplemented into cultivation medium (▪). In another set of experiment, TGF-β1 was pre-loaded into gelatin microspheres and was then controlled released to the hepatocytes at a concentration of 217.5 pg/ml ( ?; control release). In the control experiment, there is no TGF-β1 supplemented in cultivation medium (□).
# Albumin production was quantified with a rat albumin ELISA quantification kit (Bethyl Laboratories Inc, USA) in the collected cultivation medium everyday. In the presence of TGF-β1, the level of albumin secretion is enhanced. From day 5 onwards, when TGF-β1 is controlled released to the hepatocytes, the level of albumin secretion can be well-sustained.
# [2] = tested on: primary rat hepatocytes; test: UGT activity: 4-MUG production of primary rat hepatocytes in the microfluidic channel (CE-LIF); format: cell-based; conditions: from day 3 onwards; TGF-β1 controlled released from gelatin microspheres at 217.5 pg/ml; compared to medium-supplemented and control groups
# Protocol: The enzyme has the ability to metabolize the substrate 4-methylumbelliferone (MU) into 4-methylumbelliferone-glucuronide (MUG). Thus, the enzyme activity is indicated by the amount of 4-MUG produced by the cells.
# Capillary electrophoresis (CE) with fluorimetric detection was used for the simultaneous detection of 4-MU and 4-MUG. Separation is carried out on an untreated fused silica capillary with fluorimetric detection using an excitation wavelength of 320 nm with a 375 nm cut off emission filter. […]
# Similar to the UDP-glucuronosyltransferase (UGT) assay described above, UDP-glucuronosyltransferase (UGT) activity of hepatocytes cultured in the compartment of a channel of a microfluidic continuous flow device was determined by infusing 100 μM of 4-methylumbelliferone (4-MU) (Sigma, Singapore) for 4 h at 200 μl/h into the channel. The perfusate (800 μl) was collected and the metabolic product, 4-methylumbelliferone-glucuronide (4-MUG), was analyzed using capillary electrophoresis with laser induced fluorescence (CE-LIF) (Toh, Y. C. et al., 2008, Analyst, vol. 132, no. 3, p. 326) detection (Prince Technologies B.V., Netherlands) at an excitation wavelength of 325 nm.
substance,measurement,setting,value
TGF-β1: growth factor supplemented into cultivation medium or pre-loaded into gelatin microspheres and controlled released to hepatocytes,albumin secretion,"[1]; from day 5 onwards, 200 pg/ml TGF-β1 supplemented into cultivation medium",decreases
same,level of albumin secretion,"[1]; from day 5 onwards, TGF-β1 controlled released from gelatin microspheres at 217.5 pg/ml",well-sustained
same,level of albumin secretion,[1]; in the presence of TGF-β1 (200 pg/ml in medium or 217.5 pg/ml controlled release) versus no TGF-β1,enhanced
same,level of 4-MUG production,[2],greatly enhanced
